In article PMC9775322, “An Integrated Analysis of Mechanistic Insights into Biomolecular Interactions and Molecular Dynamics of Bio-Inspired Cu(II) and Zn(II) Complexes towards DNA/BSA/SARS-CoV-2 3CL^pro by Molecular Docking-Based Virtual Screening and FRET Detection” (Biomolecules, 2022):

Key:
EB–DNA = assay: Ethidium bromide displacement assay by fluorescence spectral titration; assay type: binding, calf; conditions: for LWB Method KLB (Lineweaver-Burk binding constant) / Scatchard Analysis KSA (Scatchard association binding constant) / Scatchard Analysis n (number of binding sites) / n (number of binding sites), DNA binding, Stern–Volmer Method–II / KSV (Stern-Volmer binding constant), DNA binding, Method–I / Kass (association binding constant), DNA binding, Stern–Volmer Method–II: EB–DNA; for LWB Method KLB (Lineweaver-Burk binding constant) / Scatchard Analysis KSA (Scatchard association binding constant) / Scatchard Analysis n (number of binding sites) / n (number of binding sites), DNA binding, Stern–Volmer Method–II / Kq (bimolecular quenching rate constant), DNA binding, Stern–Volmer Method–I: pH 7.4; for KSV (Stern-Volmer binding constant), DNA binding, Method–I / Kass (association binding constant), DNA binding, Stern–Volmer Method–II: pH 7.4, 610 nm; for Kq (bimolecular quenching rate constant), DNA binding, Stern–Volmer Method–I: Kq=KSV/τ0, τ0 = 10^−8 S, 610 nm; for P (ratio of fluorescence quantum efficiency of DNA bound and free complex): intercept of F/F0 vs 1/[DNA]; for ΔGb°, DNA binding, Stern–Volmer Method–II: −RT ln Kass, T = 298 K
Procedure: The DNA/BSA binding properties were acquired from the emission spectral titration with the supporting of the JASCO FP-6300 spectrofluorometer between the 200 and 800 nm regions. It is additional evidence for the complexes’ manner of DNA binding. While DNA (200 µM) was present or absent, we vigilantly monitored the intensity variations between 610 nm and 510 nm during the initial emission and excitation of EB [27]. Correspondingly, the emission titrations for BSA interaction with different concentrations between 2.5 μM and 25 μM for all samples were conducted in a Tris-HCl buffer solution (pH: 7.4) between the regions of 300 nm and 400 nm.
2.2.5. DNA/BSA binding assay by fluorescence titration
The titration was executed by the JASCO FP-6300 spectrofluorometer in the range of 200 – […]
DNA. To assess the relative DNA binding abilities of the test compound to CT-DNA, ethidium bromide (EB) was utilized as a reference. In the experiment, EB solution (20 µM) in 50 mM Tris –HCl /1 mM NaCl buffer solution (pH=7.2) was incubated with the DNA […]
solution (240 µM) at saturated binding levels and stored in a dark place for two hours. The tested compounds (1 –240 µM) were titrated with pre-incubated EB-bound DNA.
Additionally, from 610 nm to 510 nm, in the absence and presence of DNA (240 µM), the intensity changes for initial emission and excitation of EB were cautiously observed. As a conjugate planar molecule, EB's acquired fluorescence intensity is extremely low, but it […]
concentration of the compounds (0-240 µM), the intensity of the EB-DNA system decreases owing to the quenching effect of DNA by the manner of static quenching. It further attributes the generation of ground state DNA – complex adduct owing the cationic metal complexes interacting with the negatively charged oxygen in phosphodiester of DNA and the contraction of DNA pushes a few EB molecules out of DNA base pairs [ 27].
Fcorr = Fobs × e[(Aex× dex) + (Aem× dem)]/ 2 = Fobs × e(Aex + Aem)/ 2 (S12) Fcorr and F obs are represented as the IFE-corrected emission and observed (uncorrected) emission intensities, respectively. d ex and d em are denoted as the cuvette path lengths in the […]
excitation and emission directions, respectively. Also, the alteration in absorbance (OD) at the excitation and fluorescence wavelengths, respectively, is sometimes referred to as A ex and […]
F = 1+KSV [Q] = 1+ Kq τ0 (S13)
Where [Q] is represented as the sample concentration (quencher), the emission intensities F 0 and F are those in the […] of the quencher, respectively.
F ) = log Kass + nlog [Q] (S14)
KEB[EB] = Kapp[compound] (S15)
∆F = (F 0–F), Equation (16) was utilized to examine the Lineweaver –Burk binding constant (KLB) from the linear regression plot of 1/(F0–F) vs 1/[Q]. […]
γ =(F0–F)/F0, CF is denoted as the concentration of sample alone, the linear regression plot of (γ/CF) vs γ was employed to support equation (17), which was used to determine the values of KSA and n, respectively.
2.2.6. FRET calculation by Förster’s theory
Calculating FRET (Fluorescence Resonance Energy Transfer) is a crucial approach in determining the critical distance (r) between donor (BSA) and acceptor (test compound) molecules, in which the binding affinity between the BSA-complex systems could be evalued according to Förster’s theory. The overlap of the emission spectrum of the donor (BSA) and the absorption spectrum of the acceptor (compound) describes that the acceptor (compound) group may get excited as a result of the excited donor's (BSA) energy being lost to the ground

Escherichia coli = assay: Agar disc diffusion antibacterial test; conditions: for diameter of clear zone inhibition / Inhibition %: A, (-) Escherichia coli; for diameter of clear zone inhibition: 20 µL of 100 µM on 6 mm disc, Control (DMSO) = 6 mm; for Inhibition %: (T–C)/T × 100
Shigella flexneri = assay: Agar disc diffusion antibacterial test; conditions: for diameter of clear zone inhibition / Inhibition %: E, (-) Shigella flexneri; for diameter of clear zone inhibition: 20 µL of 100 µM on 6 mm disc, Control (DMSO) = 6 mm; for Inhibition %: (T–C)/T × 100

[Cu+2].[O-]c1ccccc1N=Cc1ccc(N2CCOCC2)cc1.[O-]c1ccccc1N=Cc1ccc(N2CCOCC2)cc1.c1cnc2c(c1)ccc1cccnc12 [(1b), [Cu^II(L)2(phen)]]
LWB Method KLB (Lineweaver-Burk binding constant) (EB–DNA): 21654 M⁻¹ | Scatchard Analysis KSA (Scatchard association binding constant) (EB–DNA): 33302 M⁻¹ | Scatchard Analysis n (number of binding sites) (EB–DNA): 1.008 | n (number of binding sites), DNA binding, Stern–Volmer Method–II (EB–DNA): 1.088 | KSV (Stern-Volmer binding constant), DNA binding, Method–I (EB–DNA): 40303 M⁻¹ | Kass (association binding constant), DNA binding, Stern–Volmer Method–II (EB–DNA): 31817 M⁻¹ | Kq (bimolecular quenching rate constant), DNA binding, Stern–Volmer Method–I (EB–DNA): 4.0303e+12 M⁻¹ s⁻¹ | P (ratio of fluorescence quantum efficiency of DNA bound and free complex) (EB–DNA): 0.128 | ΔGb°, DNA binding, Stern–Volmer Method–II (EB–DNA): –26.942 kJM^−1 | diameter of clear zone inhibition (Escherichia coli): 9 mm | Inhibition % (Escherichia coli): 33% | diameter of clear zone inhibition (Shigella flexneri): 17 mm | Inhibition % (Shigella flexneri): 65%

[O-]c1ccccc1N=Cc1ccc(N2CCOCC2)cc1.[O-]c1ccccc1N=Cc1ccc(N2CCOCC2)cc1.[Zn+2].c1cnc2c(c1)ccc1cccnc12 [(2b), [Zn^II(L)2(phen)]]
LWB Method KLB (Lineweaver-Burk binding constant) (EB–DNA): 18218 M⁻¹ | Scatchard Analysis KSA (Scatchard association binding constant) (EB–DNA): 32941 M⁻¹ | Scatchard Analysis n (number of binding sites) (EB–DNA): 0.909 | n (number of binding sites), DNA binding, Stern–Volmer Method–II (EB–DNA): 1.083 | KSV (Stern-Volmer binding constant), DNA binding, Method–I (EB–DNA): 20669 M⁻¹ | Kass (association binding constant), DNA binding, Stern–Volmer Method–II (EB–DNA): 19688 M⁻¹ | Kq (bimolecular quenching rate constant), DNA binding, Stern–Volmer Method–I (EB–DNA): 2.0669e+12 M⁻¹ s⁻¹ | P (ratio of fluorescence quantum efficiency of DNA bound and free complex) (EB–DNA): 0.124 | ΔGb°, DNA binding, Stern–Volmer Method–II (EB–DNA): –24.873 kJM^−1 | diameter of clear zone inhibition (Escherichia coli): 10 mm | Inhibition % (Escherichia coli): 40% | diameter of clear zone inhibition (Shigella flexneri): 14 mm | Inhibition % (Shigella flexneri): 57%

Oc1ccccc1N=Cc1ccc(N2CCOCC2)cc1 [(HL), 2-(4-morpholinobenzylideneamino)phenol]
LWB Method KLB (Lineweaver-Burk binding constant) (EB–DNA): 6985 M⁻¹ | Scatchard Analysis KSA (Scatchard association binding constant) (EB–DNA): 23194 M⁻¹ | Scatchard Analysis n (number of binding sites) (EB–DNA): 1.096 | n (number of binding sites), DNA binding, Stern–Volmer Method–II (EB–DNA): 0.976 | KSV (Stern-Volmer binding constant), DNA binding, Method–I (EB–DNA): 11636 M⁻¹ | Kass (association binding constant), DNA binding, Stern–Volmer Method–II (EB–DNA): 9882 M⁻¹ | Kq (bimolecular quenching rate constant), DNA binding, Stern–Volmer Method–I (EB–DNA): 1.1636e+12 M⁻¹ s⁻¹ | P (ratio of fluorescence quantum efficiency of DNA bound and free complex) (EB–DNA): 0.090 | ΔGb°, DNA binding, Stern–Volmer Method–II (EB–DNA): –22.790 kJM^−1 | Inhibition % (Escherichia coli): 33% | zone of inhibition at 100 µM (Escherichia coli; Escherichia coli, read-out: diameter of clear zone inhibition): 9 mm | Inhibition % (Shigella flexneri): 57% | zone of inhibition at 100 µM (Shigella flexneri; Shigella flexneri, read-out: diameter of clear zone inhibition): 14 mm
